We go through 13 compounds from ChEMBL document CHEMBL5346898, “Triazole-fused pyrimidines in target-based anticancer drug discovery” (Eur J Med Chem, 2023).

The test system of one assay is G-401. In words: Anticancer activity against human G-401 cells assessed as cell growth inhibition. It counts as functional, cell-based.
Another assay concerns the target Polycomb protein EED (Homo sapiens, UniProt O75530). In words: Inhibition of EED (unknown origin).
For the next assay, the system named is SW620/AD300. The experiment in a line: Antitumor activity against […] SW620/AD300 cells xenografted in BALB/c nude mouse assessed as relative tumor proliferation rate at 100 mg/kg/day, IG measured after 15 days relative to control. The class given is functional, Homo sapiens. To be noted: time 15 day.
Assay [1] deals with T1, eIF-2-alpha kinase GCN2 (Homo sapiens, UniProt Q9P2K8). The experiment in a line: Inhibition of human GCN2 (unknown origin).
Assay [2] concerns the target Tubulin. In words: Inhibition of tubulin polymerization (unknown origin). The class given is protein-complex assay, Homo sapiens.
The target in assay [3] is Tubulin. In words: Inhibition of tubulin polymerization (unknown origin) by spectrophotometric analysis. The class given is protein-complex assay, Homo sapiens.
The target of assay [4] is T1, eIF-2-alpha kinase GCN2. The experiment in a line: Inhibition of human recombinant GCN2 using eIF2alpha as substrate.
The target in another assay is Tubulin (Homo sapiens) (UniProt P68371+Q9H4B7+P0DPH7+P68366+Q13509+Q71U36+P04350+Q3ZCM7+P07437+P68363+Q9BQE3+Q6PEY2+Q13885+Q9BVA1+Q9BUF5). The experiment in a line: Inhibition of tubulin polymerization (unknown origin) at 10 uM by spectrophotometric analysis relative to control. It counts as protein-complex assay.
Assay [5] can be described thus: Anticancer activity against human A2780AD cells assessed as cell growth measured after 48 hrs by MTT assay. It counts as functional, cell-based. In general terms: Tetrazolium assays rely on reduction of a dye to a coloured formazan, in cell work by metabolically active cells.
A further assay has as its system A2780. In words: Anticancer activity against human A2780 cells assessed as cell growth measured after 48 hrs by MTT assay. It counts as functional, cell-based. The following applies: A2780, 48 h.
Assay [6] addresses T2, Ubiquitin carboxyl-terminal hydrolase 28 (Homo sapiens, UniProt Q96RU2).
T2 sequence (Q96RU2 whole entry): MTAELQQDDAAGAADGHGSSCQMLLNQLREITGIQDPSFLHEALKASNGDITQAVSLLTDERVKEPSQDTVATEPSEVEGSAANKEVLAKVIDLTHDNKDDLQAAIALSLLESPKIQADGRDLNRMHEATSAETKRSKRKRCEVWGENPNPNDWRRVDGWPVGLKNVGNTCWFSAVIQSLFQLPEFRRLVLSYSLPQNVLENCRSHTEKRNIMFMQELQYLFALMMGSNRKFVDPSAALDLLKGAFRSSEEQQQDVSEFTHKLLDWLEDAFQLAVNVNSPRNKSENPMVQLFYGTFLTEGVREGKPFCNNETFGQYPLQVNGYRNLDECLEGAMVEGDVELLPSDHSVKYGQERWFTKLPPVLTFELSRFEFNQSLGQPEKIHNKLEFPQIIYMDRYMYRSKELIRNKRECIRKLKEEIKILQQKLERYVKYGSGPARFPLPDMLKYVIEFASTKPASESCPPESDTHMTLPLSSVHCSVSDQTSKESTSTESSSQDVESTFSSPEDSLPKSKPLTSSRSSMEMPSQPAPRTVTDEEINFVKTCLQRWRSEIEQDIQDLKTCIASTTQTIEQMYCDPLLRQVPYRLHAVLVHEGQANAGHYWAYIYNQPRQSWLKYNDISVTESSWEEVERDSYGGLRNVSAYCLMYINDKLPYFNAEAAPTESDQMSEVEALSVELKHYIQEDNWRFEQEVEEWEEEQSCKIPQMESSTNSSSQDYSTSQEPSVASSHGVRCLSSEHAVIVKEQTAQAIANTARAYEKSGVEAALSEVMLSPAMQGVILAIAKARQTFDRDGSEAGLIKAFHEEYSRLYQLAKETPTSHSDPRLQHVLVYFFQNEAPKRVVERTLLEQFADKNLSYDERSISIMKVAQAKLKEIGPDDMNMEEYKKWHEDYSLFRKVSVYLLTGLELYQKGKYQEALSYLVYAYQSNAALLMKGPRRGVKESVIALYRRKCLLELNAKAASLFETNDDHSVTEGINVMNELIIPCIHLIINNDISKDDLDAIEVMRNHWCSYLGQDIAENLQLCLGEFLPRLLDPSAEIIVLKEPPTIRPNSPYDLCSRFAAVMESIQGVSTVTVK
The experiment in a line: Inhibition of USP28 (unknown origin).

Assay [7] addresses Lysine-specific histone demethylase 1A (Homo sapiens, UniProt O60341). In words: Inhibition of LSD1 (unknown origin).
The target in assay [8] is Ubiquitin carboxyl-terminal hydrolase 7 (Homo sapiens, UniProt Q93009). The experiment in a line: Inhibition of USP7 (unknown origin).

Where only a bound is given, the exact number is not on record here.

T1 sequence (Q9P2K8 whole entry): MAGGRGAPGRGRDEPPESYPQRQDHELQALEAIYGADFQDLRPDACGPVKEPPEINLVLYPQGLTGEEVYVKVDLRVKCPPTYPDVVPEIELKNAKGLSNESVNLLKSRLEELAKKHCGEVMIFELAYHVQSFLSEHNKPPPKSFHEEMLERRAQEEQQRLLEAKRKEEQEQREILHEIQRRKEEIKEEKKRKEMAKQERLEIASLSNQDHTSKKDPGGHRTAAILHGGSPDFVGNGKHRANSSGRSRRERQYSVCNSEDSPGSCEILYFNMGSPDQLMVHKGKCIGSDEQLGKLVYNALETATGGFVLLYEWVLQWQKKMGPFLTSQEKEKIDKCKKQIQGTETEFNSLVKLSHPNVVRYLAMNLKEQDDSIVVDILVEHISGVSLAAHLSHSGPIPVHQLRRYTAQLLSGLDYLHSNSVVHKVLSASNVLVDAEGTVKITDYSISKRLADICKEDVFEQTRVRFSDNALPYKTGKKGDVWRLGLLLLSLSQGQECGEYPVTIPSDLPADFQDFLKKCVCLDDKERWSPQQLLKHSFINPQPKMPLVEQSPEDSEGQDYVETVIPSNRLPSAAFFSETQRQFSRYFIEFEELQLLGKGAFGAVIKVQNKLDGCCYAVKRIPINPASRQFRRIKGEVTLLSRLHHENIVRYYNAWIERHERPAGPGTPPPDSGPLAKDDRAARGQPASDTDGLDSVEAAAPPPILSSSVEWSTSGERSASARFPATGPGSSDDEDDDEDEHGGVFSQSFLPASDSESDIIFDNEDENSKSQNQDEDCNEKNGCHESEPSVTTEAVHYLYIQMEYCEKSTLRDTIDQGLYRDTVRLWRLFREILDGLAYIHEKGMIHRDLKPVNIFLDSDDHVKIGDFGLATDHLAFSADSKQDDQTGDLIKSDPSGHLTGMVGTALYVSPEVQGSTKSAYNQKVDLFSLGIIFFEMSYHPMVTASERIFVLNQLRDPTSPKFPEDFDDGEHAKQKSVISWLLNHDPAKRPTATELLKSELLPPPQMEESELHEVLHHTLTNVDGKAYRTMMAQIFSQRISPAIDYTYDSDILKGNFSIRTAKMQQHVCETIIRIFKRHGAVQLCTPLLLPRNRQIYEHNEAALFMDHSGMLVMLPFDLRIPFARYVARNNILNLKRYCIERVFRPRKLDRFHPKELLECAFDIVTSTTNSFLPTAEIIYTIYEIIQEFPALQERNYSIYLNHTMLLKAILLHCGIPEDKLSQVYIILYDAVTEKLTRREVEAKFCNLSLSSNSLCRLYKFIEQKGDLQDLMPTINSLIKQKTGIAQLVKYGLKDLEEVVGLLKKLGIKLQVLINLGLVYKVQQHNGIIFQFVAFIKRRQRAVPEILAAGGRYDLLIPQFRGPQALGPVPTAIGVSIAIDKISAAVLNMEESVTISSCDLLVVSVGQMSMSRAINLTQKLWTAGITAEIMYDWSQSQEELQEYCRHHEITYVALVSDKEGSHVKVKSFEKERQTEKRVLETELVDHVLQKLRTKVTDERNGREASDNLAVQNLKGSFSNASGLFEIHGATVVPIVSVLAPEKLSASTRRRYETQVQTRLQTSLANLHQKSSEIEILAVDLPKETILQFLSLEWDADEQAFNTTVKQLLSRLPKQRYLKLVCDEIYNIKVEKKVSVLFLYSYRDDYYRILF
Polycomb protein EED, sequence (O75530 whole entry): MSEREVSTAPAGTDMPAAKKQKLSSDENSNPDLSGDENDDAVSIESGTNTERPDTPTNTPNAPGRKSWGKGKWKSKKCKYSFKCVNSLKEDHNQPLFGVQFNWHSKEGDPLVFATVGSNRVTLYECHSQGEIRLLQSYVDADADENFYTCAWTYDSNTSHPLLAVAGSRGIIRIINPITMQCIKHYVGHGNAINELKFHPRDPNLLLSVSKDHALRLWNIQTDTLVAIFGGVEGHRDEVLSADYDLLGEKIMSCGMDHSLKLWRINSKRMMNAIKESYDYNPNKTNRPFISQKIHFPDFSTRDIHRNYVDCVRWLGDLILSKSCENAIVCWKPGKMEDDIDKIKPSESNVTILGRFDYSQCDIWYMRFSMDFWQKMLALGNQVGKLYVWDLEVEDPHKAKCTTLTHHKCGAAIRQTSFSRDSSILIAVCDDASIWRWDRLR
Ubiquitin carboxyl-terminal hydrolase 7, sequence (Q93009 whole entry): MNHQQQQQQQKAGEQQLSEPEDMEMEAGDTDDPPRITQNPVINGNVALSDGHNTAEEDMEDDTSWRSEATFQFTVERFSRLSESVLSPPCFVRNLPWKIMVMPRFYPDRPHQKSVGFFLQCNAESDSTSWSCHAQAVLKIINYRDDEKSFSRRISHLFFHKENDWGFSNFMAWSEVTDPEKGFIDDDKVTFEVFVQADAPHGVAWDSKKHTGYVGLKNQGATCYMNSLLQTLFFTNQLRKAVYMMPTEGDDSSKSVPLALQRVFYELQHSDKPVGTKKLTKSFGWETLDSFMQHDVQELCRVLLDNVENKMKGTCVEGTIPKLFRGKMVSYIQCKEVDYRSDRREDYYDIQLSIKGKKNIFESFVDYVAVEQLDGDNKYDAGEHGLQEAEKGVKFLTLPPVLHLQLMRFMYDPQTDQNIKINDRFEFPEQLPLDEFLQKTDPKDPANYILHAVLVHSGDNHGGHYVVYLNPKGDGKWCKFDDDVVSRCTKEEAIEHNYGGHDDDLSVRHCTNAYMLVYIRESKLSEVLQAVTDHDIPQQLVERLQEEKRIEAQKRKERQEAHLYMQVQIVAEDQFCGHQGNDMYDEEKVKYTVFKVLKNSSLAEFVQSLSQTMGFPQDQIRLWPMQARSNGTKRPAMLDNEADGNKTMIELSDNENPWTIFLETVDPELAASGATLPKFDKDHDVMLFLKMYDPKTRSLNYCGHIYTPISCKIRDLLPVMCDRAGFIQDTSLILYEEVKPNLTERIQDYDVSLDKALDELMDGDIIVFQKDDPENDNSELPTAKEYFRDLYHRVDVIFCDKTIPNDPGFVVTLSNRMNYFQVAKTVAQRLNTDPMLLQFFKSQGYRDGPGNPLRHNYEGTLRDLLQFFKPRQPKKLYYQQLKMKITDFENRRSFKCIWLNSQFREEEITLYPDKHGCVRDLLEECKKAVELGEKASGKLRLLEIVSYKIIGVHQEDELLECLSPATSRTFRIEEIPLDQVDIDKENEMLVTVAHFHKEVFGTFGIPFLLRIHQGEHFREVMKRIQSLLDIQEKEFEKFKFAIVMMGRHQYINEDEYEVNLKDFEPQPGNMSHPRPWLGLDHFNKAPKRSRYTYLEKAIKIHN

Take `N#Cc1c2c(c3nncn3c1NCc1ccco1)CN(Cc1ccccc1)CC2`: in the assay with G-401, the half-inhibitory concentration (IC50) was 3280 nM.

For `CS(=O)(=O)c1ccc(-c2cnc(NCc3ccco3)n3cnnc23)cc1`, the results for the concentration for half-maximal inhibition (IC50) in the assay on G-401 and on Polycomb protein EED were 85000 nM and 30 nM, respectively.

With `Cc1cc(Nc2ccccc2)n2nc(SCc3nc4ccccc4[nH]3)nc2n1`, the T/C in the assay with SW620/AD300 stood at 29.7%.

For `c1nn(C2CCOCC2)cc1Nc1ncc2nnn(-c3ccc4cn[nH]c4c3)c2n1`, the IC50 on eIF-2-alpha kinase GCN2 [1] is less than 300 nM.

For the compound `CCOc1ccc(-n2nnc3cnc(Nc4cnn(C5CCOCC5)c4)nc32)cc1`, the IC50 on eIF-2-alpha kinase GCN2 [1] stood at 16 nM.

Turning to `Cc1cc(Nc2ccc(F)cc2)n2nc(NCCCc3ccccc3)nc2n1`, on Tubulin [2], the IC50 was found to be 390 nM.

In the case of `COc1ccc(-c2c(C(C)=O)c(C)nc3nc(-c4cc(OC)c(OC)c(OC)c4)nn23)cc1[N+](=O)[O-]`, the half-maximal inhibitory concentration (IC50) on Tubulin [3] came to 9900 nM.

Consider `COc1ccc(-n2nnc3cnc(Nc4ccc(N)c(C)c4)nc32)cc1`, for which the IC50 at eIF-2-alpha kinase GCN2 [4] turned out to be 4 nM.

`COc1cc(-c2nc3nc(C)c(C(C)=O)c(-c4ccc([N+](=O)[O-])cc4)n3n2)cc(OC)c1OC`: the inhibition against Tubulin (Homo sapiens) came to 42%.

Regarding `Cc1ncccc1-c1cnc(NCc2c(F)cc(N)c3c2CCO3)n2cnnc12`, at Polycomb protein EED, half-maximal inhibition (IC50) required 50 nM.

Turning to `COc1cc(-c2cc(-c3ccc(Cl)cc3)nc3nc(N)nn23)cc(OC)c1OC`, on Tubulin [2], inhibition was half-maximal at 3840 nM (IC50).

Turning to `CO[C@H]1C[C@H]2CC[C@@H](C1)N2c1c(-c2c(F)cc(F)cc2F)c(Cl)nc2ncnn12`, the IC50 was determined as 81 nM in assay [5] and 51 nM in the assay with A2780.

For `CCCSc1nc(NCCN)c2nnn(Cc3ccc(Cl)cc3)c2n1`, the concentration for half-maximal inhibition (IC50) in assay [6] is 1100 nM; in assay [7] it was greater than 100000 nM; in assay [8], greater than 100000 nM.

What is called IC50 is the concentration at which inhibition is half-maximal. For orientation: T/C means the result in the treated group divided by that in the control group, in per cent. What is called inhibition is the drop in the measured response relative to a control, in per cent. Read a low inhibition as a weak effect.
